Reference: ChEMBL document CHEMBL4130418, “From dual binding site acetylcholinesterase inhibitors to allosteric modulators: A new avenue for disease-modifying drugs in Alzheimer's disease” (Eur J Med Chem, 2017)
Active and inactive are the calls of the source. The rule behind the calls is not given here.

How the values were obtained:
Acetylcholinesterase [1] = biological target: T1, Acetylcholinesterase (Homo sapiens, UniProt P22303); assay: Inhibition of human AChE using acetylthiocholine iodide as substrate preincubated for 5 mins followed by substrate addition measured over 5 mins by UV-Vis spectrophotometric analysis
Cholinesterase = Cholinesterase (Homo sapiens, UniProt P06276); assay: Inhibition of human serum BuChE using butyrylthiocholine iodide as substrate preincubated for 5 mins followed by substrate addition measured over 5 mins by UV-Vis spectrophotometric analysis
SH-SY5Y [2] = assay: Induction of neuronal differentiation in human SH-SY5Y cells assessed as neurite bearing cells at 0.13 uM followed by culture medium replacement for every three days for 10 days by inverted-phase microscopic analysis relative to control; type: functional
SH-SY5Y [3] = assay: Cytotoxicity against human SH-SY5Y cells assessed as reduction in cell viability at 2.84 uM after 24 hrs by XTT assay; type: cell-based
SH-SY5Y [4] = assay: Induction of neuronal differentiation in human SH-SY5Y cells assessed as decrease in cell proliferation at 0.13 uM followed by culture medium replacement for every three days for 10 days by inverted-phase microscopic analysis; type: functional, cell-based
HepG2 [5] = assay: Cytotoxicity against human HepG2 cells assessed as reduction in cell viability at 2.84 to 5.68 uM after 24 hrs by XTT assay; type: cell-based; details: hepg2, 24 h
SH-SY5Y [6] = assay: Induction of neuronal differentiation in human SH-SY5Y cells assessed as extensive neurites formation at 0.13 uM followed by culture medium replacement for every three days for 10 days by inverted-phase microscopic analysis; type: functional, cell-based
SH-SY5Y [7] = assay: Cytoprotection against amyloid beta (1 to 42) peptide induced cell death in human SH-SY5Y cells assessed as increase in clonogenic survival after 24 hrs by Giemsa staining-based inverted microscopic analysis; type: functional; details: read-out: MEC
SH-SY5Y [8] = assay: Induction of neuronal differentiation in human SH-SY5Y cells assessed as extensive neurites formation at 0.014 uM followed by culture medium replacement for every three days for 10 days by inverted-phase microscopic analysis; type: functional, cell-based
Acetylcholinesterase [9] = biological target: T1, Acetylcholinesterase; assay: Noncompetitive inhibition of human AChE using acetylthiocholine iodide as substrate preincubated for 5 mins followed by substrate addition measured over 5 mins by Lineweaver-Burk plot analysis
SH-SY5Y [10] = assay: Cytotoxicity against human SH-SY5Y cells assessed as reduction in cell viability at 0.056 uM after 24 hrs by XTT assay; type: cell-based
[11] = biological target: Acetylcholinesterase (Electrophorus electricus) (UniProt O42275); assay: Binding affinity to electric eel AChE in presence of 80 to 1216 uM donepezil by STD NMR spectroscopy method
SH-SY5Y [12] = assay: Induction of neuronal differentiation in human SH-SY5Y cells assessed as decrease in cell proliferation at 0.014 uM followed by culture medium replacement for every three days for 10 days by inverted-phase microscopic analysis; type: functional, cell-based
HepG2 [13] = assay: Cytotoxicity against human HepG2 cells assessed as reduction in cell viability at 0.0035 to 0.224 uM after 24 hrs by XTT assay; type: cell-based; details: hepg2, 24 h
[14] = biological target: Acetylcholinesterase (Electrophorus electricus) (UniProt O42275); assay: Binding affinity to electric eel AChE in presence fixed dose of donepezil by STD NMR spectroscopy method
SH-SY5Y [15] = assay: Induction of neuronal differentiation in human SH-SY5Y cells assessed as neurite bearing cells at 0.014 uM followed by culture medium replacement for every three days for 10 days by inverted-phase microscopic analysis relative to control; type: functional
Acetylcholinesterase [16] = biological target: T1, Acetylcholinesterase; assay: Mixed-type inhibition of human AChE using acetylthiocholine iodide as substrate preincubated for 5 mins followed by substrate addition measured over 5 mins by Lineweaver-Burk plot analysis

T1 sequence (P22303 whole entry): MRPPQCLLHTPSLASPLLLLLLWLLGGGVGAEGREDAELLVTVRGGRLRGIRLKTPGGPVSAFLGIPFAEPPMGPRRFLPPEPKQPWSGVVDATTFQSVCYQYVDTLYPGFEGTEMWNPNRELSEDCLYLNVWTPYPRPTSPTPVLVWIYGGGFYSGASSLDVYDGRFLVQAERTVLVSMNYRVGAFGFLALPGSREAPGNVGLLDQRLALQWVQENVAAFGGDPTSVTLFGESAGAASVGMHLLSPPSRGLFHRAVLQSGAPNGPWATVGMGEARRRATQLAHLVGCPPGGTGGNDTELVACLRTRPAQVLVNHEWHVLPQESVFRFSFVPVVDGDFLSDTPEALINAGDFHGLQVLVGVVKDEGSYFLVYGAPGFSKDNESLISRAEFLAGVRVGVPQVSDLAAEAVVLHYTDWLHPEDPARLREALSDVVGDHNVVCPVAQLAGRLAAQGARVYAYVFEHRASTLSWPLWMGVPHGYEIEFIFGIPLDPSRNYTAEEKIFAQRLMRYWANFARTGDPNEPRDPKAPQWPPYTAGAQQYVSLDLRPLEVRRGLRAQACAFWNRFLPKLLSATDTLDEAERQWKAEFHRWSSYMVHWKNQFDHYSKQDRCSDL
Sequence of Acetylcholinesterase (Electrophorus electricus) (O42275 24-633 limits assumed): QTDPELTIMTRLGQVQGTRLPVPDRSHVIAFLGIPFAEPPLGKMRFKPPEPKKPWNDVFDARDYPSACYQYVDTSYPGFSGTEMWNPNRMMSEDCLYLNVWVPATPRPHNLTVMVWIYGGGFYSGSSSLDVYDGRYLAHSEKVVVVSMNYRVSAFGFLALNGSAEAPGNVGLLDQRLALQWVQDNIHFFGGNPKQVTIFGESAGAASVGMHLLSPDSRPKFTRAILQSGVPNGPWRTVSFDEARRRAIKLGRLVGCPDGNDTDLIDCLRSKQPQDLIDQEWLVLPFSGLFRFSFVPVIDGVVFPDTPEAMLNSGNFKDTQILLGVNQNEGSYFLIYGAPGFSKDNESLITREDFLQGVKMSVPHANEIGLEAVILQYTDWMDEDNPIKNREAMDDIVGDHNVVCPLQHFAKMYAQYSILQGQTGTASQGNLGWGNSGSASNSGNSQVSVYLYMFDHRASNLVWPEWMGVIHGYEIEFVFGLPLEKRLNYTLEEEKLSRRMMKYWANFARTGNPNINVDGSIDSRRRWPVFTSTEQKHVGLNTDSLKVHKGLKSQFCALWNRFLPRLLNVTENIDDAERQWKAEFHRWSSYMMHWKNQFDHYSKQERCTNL
Sequence of Cholinesterase (P06276 whole entry): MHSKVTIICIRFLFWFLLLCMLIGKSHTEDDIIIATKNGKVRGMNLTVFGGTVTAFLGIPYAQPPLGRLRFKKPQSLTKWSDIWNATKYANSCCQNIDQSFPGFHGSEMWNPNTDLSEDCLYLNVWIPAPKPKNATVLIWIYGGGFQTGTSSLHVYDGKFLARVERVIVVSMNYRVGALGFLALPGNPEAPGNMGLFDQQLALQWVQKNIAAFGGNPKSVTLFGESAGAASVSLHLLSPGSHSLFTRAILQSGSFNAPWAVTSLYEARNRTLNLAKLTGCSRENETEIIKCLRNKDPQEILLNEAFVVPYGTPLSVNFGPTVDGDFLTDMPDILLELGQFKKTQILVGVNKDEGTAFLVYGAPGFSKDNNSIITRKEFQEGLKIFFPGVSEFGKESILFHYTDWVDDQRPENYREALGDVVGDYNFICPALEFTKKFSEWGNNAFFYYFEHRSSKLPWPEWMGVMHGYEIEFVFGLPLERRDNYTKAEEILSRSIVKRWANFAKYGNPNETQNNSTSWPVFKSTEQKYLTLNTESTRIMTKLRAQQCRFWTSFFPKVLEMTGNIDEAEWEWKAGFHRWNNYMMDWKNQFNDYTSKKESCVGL

With `COc1cc2c(cc1OC)C(=O)C(CC1CCN(Cc3cc(Cl)c4ccccc4n3)CC1)C2` (stereo not drawn) the IC50 (Acetylcholinesterase [1]) was over 10 µM and the IC50 (Cholinesterase) was 5.99 µM.

In the case of `[N-]=[N+]=Nc1cc(CN2CCC(C=O)CC2)nc2ccccc12`, the IC50 (Acetylcholinesterase [1]) is reported as over 10 µM and the IC50 (Cholinesterase) is reported as over 10 µM.

In the case of `COc1cc2c(cc1OC)C(=O)/C(=C/C1CCN(Cc3cc(Cl)c4ccccc4n3)CC1)C2`, the IC50 (Acetylcholinesterase [1]) is reported as over 10 µM and the IC50 (Cholinesterase) is reported as over 10 µM.

In the case of `COc1cc2c(cc1OC)C(=O)C(CC1CCN(Cc3cc(N)c4ccccc4n3)CC1)C2` (stereo not drawn), the Activity (SH-SY5Y [2]) is reported as 43%, the IC50 (Acetylcholinesterase [1]) is reported as 0.71 µM and the Activity (SH-SY5Y [3]) is reported as “Toxic”. The Activity (SH-SY5Y [4]) was “Active”, the Activity (HepG2 [5]) was “Non-Toxic” and the Activity (SH-SY5Y [6]) was “Active”. For the same molecule, the IC50 (Cholinesterase) was 6.54 µM and the minimal effective concentration (SH-SY5Y [7]) was 0.088 µM.

`COc1cc2c(cc1OC)C(=O)/C(=C/C1CCN(Cc3cc(N)c4ccccc4n3)CC1)C2` was tested, and the Activity (SH-SY5Y [8]) was “Active”, the inhibition (Acetylcholinesterase [9]) was “Active” and the IC50 (Acetylcholinesterase [1]) was 0.014 µM. For the same molecule, the Activity (SH-SY5Y [10]) was “Toxic”, the Activity [11] was “Active” and the Activity (SH-SY5Y [12]) was “Active”. For the same molecule, the Activity (HepG2 [13]) was “Non-Toxic”, the IC50 (Cholinesterase) was 3.69 µM and the Activity [14] was “Active”. For the same molecule, the Activity (SH-SY5Y [15]) was 55% and the minimal effective concentration (SH-SY5Y [7]) was 0.0035 µM.

With `OCC1CCN(Cc2cc(Cl)c3ccccc3n2)CC1` the IC50 (Acetylcholinesterase [1]) was over 10 µM and the IC50 (Cholinesterase) was over 10 µM.

`O=CC1CCN(Cc2cc(Cl)c3ccccc3n2)CC1` gave an IC50 (Acetylcholinesterase [1]) of over 10 µM and an IC50 (Cholinesterase) of over 10 µM.

In the case of `COc1cc2c(cc1OC)C(=O)/C(=C/C1CCN(Cc3cc(N=[N+]=[N-])c4ccccc4n3)CC1)C2`, the IC50 (Acetylcholinesterase [1]) is reported as 4.88 µM, the inhibition (Acetylcholinesterase [16]) is reported as “Active” and the Activity [11] is reported as “inactive”. The IC50 (Cholinesterase) was over 10 µM.
